The target of this experiment is T1, Human PKal (plasma kallikrein) (Homo sapiens, UniProt P03952).
T1 construct: purchased Molecular Innovations HPKA
Briefly: Pre-equilibrium titration curve inhibition assay of plasma kallikrein (fluorogenic substrate H-Pro-Phe-Arg-AMC, global fit with Eq. 7). Format: biochemical. The settings on record: Ki = koff/kon from pre-equilibrium curves, 25 °C, pH 7.5, PKal 1 nM (0.25 nM for 4b), mean ± SD of at least 3 independent measurements. The procedure: The TBMB-based bicyclic peptide inhibitors of PKal used in this study are listed in Table 1, some of which have been described previously (Teufel et al. [2018]). Experiments were performed at 25 °C in 20 mM Tris–HCl, 150 mM NaCl, 1 mM EDTA, 0.1% PEG-6000, 0.1% Triton X-100, pH 7.5. Human PKal (Molecular Innovations, cat. HPKA, typical nominal concentration 1 nM for all peptides except 0.25 nM for peptide 4b) was pre-incubated in 96-well plates with different concentrations of the tested peptide (typically a serial twofold dilution plus a control with no peptide) in a reaction volume of 90 µL. At different timepoints, the fluorogenic substrate H-Pro-Phe-Arg-AMC (Bachem, cat. I-1295.0050, 10 µL, 20 µM final) was added to the relevant wells, and the increase in fluorescence at 480 nm (with excitation at 360 nm) was recorded using a Spectramax M2e plate reader (Molecular Devices). Initial rates of substrate hydrolysis were obtained by linear fit of the raw fluorescence vs. time traces. In addition, fluorescence was recorded ensuring that no more than 10% of the substrate were hydrolyzed, and for periods of time (typically 30–60 s) short enough to obtain linear traces. The data were plotted as the initial rate of substrate hydrolysis vs. peptide concentration for the different times of incubation prior to substrate addition (as shown in Fig. 3) and analyzed using Eq. 7.
To compute unique values of kon and koff, data sets such as those of Fig. 3 must be analyzed “globally”, i.e., considering all pre-equilibrium inhibition curves as a unique data set, as allowed by modern nonlinear regression analysis software’s. In this study, we used GraphPad Prism ver. 5.02 (GraphPad Software Inc., La Jolla, CA) applying equal weighting (i.e., performing minimization based on absolute distances squared), and we invite the reader to consult the software’s user’s manual for a detailed description of how global fitting of such data sets can be performed (https://cdn.graphpad.com/faq/2/file/Prism_v5_Regression_Guide.pdf). One point to highlight is that the parameters kon, koff and E0 should be “shared”, to employ the terminology used in GraphPad Prism, i.e., that one unique value of these parameters is used to fit the data. […] As discussed previously for the analysis of data obtained under equilibrium, i.e., using Eq. 1 (see Teufel et al. [2018]), the term E0 in Eq. 7 can be treated as a shared but adjustable parameter or, as here, fixed to its known value. The terms v0, kon and koff, by contrast, always need to be treated as adjustable parameters. Finally, the knowledge of the kinetic parameters kon and koff enables calculation of the equilibrium inhibition constant Ki (Ki = koff/kon).
In the case of H-Pro-Phe-Arg-AMC, however, the Km for human PKal is large (Teufel et al. [2018]) and experiments were performed under conditions where [S] < < Km. Therefore, the values for kon, koff and Ki reported here can be considered as representing actual values.

Read-outs that look alike come from different tables or passages of the source. Starred links: 1 amine or outer side, 2 acyl side, 3 side chain; linkers in the order of their positions; H or OH if unused. Positions of bridges follow the written chain, without caps; N, C: chain ends. Non-standard residues stand in square brackets, D forms with d. Residues, ends and D or L forms follow the SMILES beside them. TBMB = c1c(C[*:1])cc(C[*:3])cc1C[*:2]; NMeR = CN[C@@H](CCCNC(=N)N)C(=O)O; hArg = N=C(N)NCCCC[C@H](N)C(=O)O; Aze = O=C(O)[C@@H]1CCN1; Sar = CNCC(=O)O

T1 sequence (P03952 391-638 limits assumed): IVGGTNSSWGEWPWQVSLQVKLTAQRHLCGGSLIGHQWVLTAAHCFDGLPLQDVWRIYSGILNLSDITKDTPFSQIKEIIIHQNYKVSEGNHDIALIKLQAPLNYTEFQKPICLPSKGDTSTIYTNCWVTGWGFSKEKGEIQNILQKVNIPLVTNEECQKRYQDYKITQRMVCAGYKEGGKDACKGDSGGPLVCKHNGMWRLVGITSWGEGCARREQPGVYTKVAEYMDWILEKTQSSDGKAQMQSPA
T1 sequence (P03952 20-390 partner limits assumed): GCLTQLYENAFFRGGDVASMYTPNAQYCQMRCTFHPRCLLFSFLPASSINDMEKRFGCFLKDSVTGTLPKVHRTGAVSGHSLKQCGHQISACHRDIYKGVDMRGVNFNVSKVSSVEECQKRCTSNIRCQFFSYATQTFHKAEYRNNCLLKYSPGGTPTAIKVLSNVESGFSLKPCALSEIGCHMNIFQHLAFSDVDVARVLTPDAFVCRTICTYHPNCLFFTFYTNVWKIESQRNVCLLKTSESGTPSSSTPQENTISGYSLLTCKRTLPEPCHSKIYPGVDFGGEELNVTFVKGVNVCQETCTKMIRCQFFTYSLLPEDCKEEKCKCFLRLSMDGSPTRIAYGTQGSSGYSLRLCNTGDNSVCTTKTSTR

With `CC(=O)N[C@H]1CSCc2cc3cc(c2)CSC[C@H](NC(=O)[C@H](Cc2c[nH]c4ccccc24)NC(=O)[C@@H]2CCCN2C(=O)[C@H](CC(N)=O)NC(=O)[C@H](Cc2c[nH]c4ccccc24)NC(=O)[C@H]([C@@H](C)O)NC(=O)[C@H](CC(N)=O)NC1=O)C(=O)N1CCC[C@H]1C(=O)N[C@@H](Cc1c[nH]c2ccccc12)C(=O)N[C@@H](CC(=O)O)C(=O)N[C@@H](C)C(=O)N1CCC[C@H]1C(=O)N[C@@H](CC(C)C)C(=O)N[C@H](C(=O)N[C@@H](C)C(=O)N(C)CC(=O)N(C)CC(=O)N(C)CC(=O)N[C@H](CCCNC(=N)N)C(=O)N[C@H](CCCNC(=N)N)C(N)=O)CSC3` [Peptide 1b] (Ac-CNTWNPWCPWDAPLCA[Sar][Sar][Sar][dR][dR]-NH2; linker 1-8-15 via TBMB), for the setting “read-out: Ki”, the Ki (in general, the equilibrium dissociation constant of an inhibitor or competing ligand from its target) came to 1.8 ± 0.2 nM.
Turning to `CC(=O)N[C@H]1CSCc2cc3cc(c2)CSC[C@H](NC(=O)[C@H](CCCNC(=N)N)NC(=O)[C@H](C)NC(=O)[C@@H]2CCCN2C(=O)[C@H](Cc2c[nH]c4ccccc24)NC(=O)[C@H](CO)NC1=O)C(=O)N[C@@H](CC(C)C)C(=O)N[C@@H](Cc1c[nH]cn1)C(=O)N[C@@H](CCC(N)=O)C(=O)N[C@@H](CC(=O)O)C(=O)N[C@@H](CC(C)C)C(=O)N[C@H](C(N)=O)CSC3` [Peptide 2b] (Ac-CSWPARCLHQDLC-NH2; linker 1-7-13 via TBMB), the Ki (read-out: Ki) amounted to 0.1 ± 0.02 nM.
For `CC(=O)N[C@H]1CSCc2cc3cc(c2)CSC[C@H](NC(=O)[C@H](CCCNC(=N)N)NC(=O)[C@H](Cc2ccc(O)cc2)NC(=O)[C@@H]2CCCN2C(=O)[C@H](Cc2ccccc2)NC(=O)[C@H](CO)NC1=O)C(=O)N[C@@H](CC(C)C)C(=O)N[C@@H](Cc1c[nH]cn1)C(=O)N[C@@H](CCC(N)=O)C(=O)N[C@@H](CC(=O)O)C(=O)N[C@@H](CC(C)C)C(=O)N[C@H](C(N)=O)CSC3` [Peptide 2c] (Ac-CSFPYRCLHQDLC-NH2; linker 1-7-13 via TBMB), for the setting “read-out: Ki”, the Ki stood at 0.34 ± 0.04 nM.
`CC(=O)N[C@H]1CSCc2cc3cc(c2)CSC[C@H](NC(=O)[C@H](CCCCNC(=N)N)NC(=O)[C@H](Cc2ccc(O)cc2)NC(=O)[C@@H]2CCN2C(=O)[C@H](Cc2ccccc2)NC(=O)[C@H](CO)NC1=O)C(=O)N[C@@H](C)CN[C@@H](Cc1c[nH]cn1)C(=O)N[C@@H](CCC(N)=O)C(=O)N[C@@H](CC(=O)O)C(=O)N[C@@H](CC(C)C)C(=O)N[C@H](C(N)=O)CSC3` [Peptide 2d]: the Ki (read-out: Ki) stood at 0.22 ± 0.04 nM.
In turn, `CC[C@H](C)[C@@H]1NC(=O)[C@H](CC(=O)O)NC(=O)[C@@H]2CCCN2C(=O)[C@H](Cc2ccc(O)cc2)NC(=O)[C@H](Cc2ccc(O)cc2)NC(=O)[C@H](C(C)C)NC(=O)[C@@H]2CSCc3cc(cc(c3)CSC[C@@H](C(=O)N[C@@H](C)C(=O)N(C)CC(=O)N(C)CC(=O)N(C)CC(=O)N[C@H](CCCNC(=N)N)C(=O)N[C@H](CCCNC(=N)N)C(N)=O)NC1=O)CSC[C@H](NC(C)=O)C(=O)N[C@@H](CO)C(=O)N[C@@H](Cc1ccccc1)C(=O)N1CC[C@H]1C(=O)N[C@@H](Cc1ccc(O)cc1)C(=O)N[C@@H](CCCCNC(=N)N)C(=O)N2` [Peptide 4b] (Ac-CSF[Aze]Y[hArg]CVYYPDICA[Sar][Sar][Sar][dR][dR]-NH2; linker 1-7-14 via TBMB) came in with a Ki (Ki) of 0.14 ± 0.02 nM.
As to `CC(=O)N[C@H]1CSCc2cc3cc(c2)CSC[C@H](NC(=O)[C@H](CCCNC(=N)N)NC(=O)[C@H](Cc2ccc(O)cc2)NC(=O)[C@@H]2CCCN2C(=O)[C@H](Cc2ccccc2)NC(=O)[C@H](CO)NC1=O)C(=O)N[C@@H](CC(C)C)C(=O)N[C@@H](Cc1c[nH]cn1)C(=O)N[C@@H](CCC(N)=O)C(=O)N[C@@H](CC(=O)O)C(=O)N[C@@H](CC(C)C)C(=O)N[C@H](C(N)=O)CSC3` [Peptide 5a] (Ac-CSFPYRCLHQDLC-NH2; linker 1-7-13 via TBMB), under “read-out: Ki”, the Ki worked out at 0.36 ± 0.06 nM.
Same read-out and setting: under `CC(=O)N[C@H]1CSCc2cc3cc(c2)CSC[C@H](NC(=O)[C@H](CCCCNC(=N)N)NC(=O)[C@H](Cc2ccc(O)cc2)NC(=O)[C@@H]2CCCN2C(=O)[C@H](Cc2ccccc2)NC(=O)[C@H](CO)NC1=O)C(=O)N[C@@H](CC(C)C)C(=O)N[C@@H](Cc1c[nH]cn1)C(=O)N[C@@H](CCC(N)=O)C(=O)N[C@@H](CC(=O)O)C(=O)N[C@@H](CC(C)C)C(=O)N[C@H](C(N)=O)CSC3` [Peptide 5b] (Ac-CSFPY[hArg]CLHQDLC-NH2; linker 1-7-13 via TBMB) stands 0.53 ± 0.07 nM.
With `CC(=O)N[C@H]1CSCc2cc3cc(c2)CSC[C@H](NC(=O)[C@H](CCCCNC(=N)N)NC(=O)[C@H](Cc2ccc(O)cc2)NC(=O)[C@@H]2CCN2C(=O)[C@H](Cc2ccccc2)NC(=O)[C@H](CO)NC1=O)C(=O)N[C@@H](CC(C)C)C(=O)N[C@@H](Cc1c[nH]cn1)C(=O)N[C@@H](CCC(N)=O)C(=O)N[C@@H](CC(=O)O)C(=O)N[C@@H](CC(C)C)C(=O)N[C@H](C(N)=O)CSC3` [Peptide 5c] (Ac-CSF[Aze]Y[hArg]CLHQDLC-NH2; linker 1-7-13 via TBMB), where the note is “read-out: Ki”, the Ki was found to be 0.061 ± 0.027 nM.
Take `CC(=O)N[C@H]1CSCc2cc3cc(c2)CSC[C@H](NC(=O)[C@H](CCCNC(=N)N)N(C)C(=O)[C@H](Cc2ccc(O)cc2)NC(=O)[C@@H]2CCN2C(=O)[C@H](Cc2ccccc2)NC(=O)[C@H](CO)NC1=O)C(=O)N[C@@H](CC(C)C)C(=O)N[C@@H](Cc1c[nH]cn1)C(=O)N[C@@H](CCC(N)=O)C(=O)N[C@@H](CC(=O)O)C(=O)N[C@@H](CC(C)C)C(=O)N[C@H](C(N)=O)CSC3` [Peptide 5d] (Ac-CSF[Aze]Y[NMeR]CLHQDLC-NH2; linker 1-7-13 via TBMB): the Ki (read-out: Ki) was found to be 0.55 ± 0.06 nM.

The values are drawn from paper PMC8448677, “A novel assay based on pre-equilibrium titration curves for the determination of enzyme inhibitor binding kinetics” (European Biophysics Journal, 2021).
